Here are results for 3 compounds from patent publication US8263621B2, “Tartrate derivatives for use as coagulation factor IXa inhibitors” (Sanofi, priority 2006, dated 2012).

T1 sequence (P00740 227-461 limits assumed): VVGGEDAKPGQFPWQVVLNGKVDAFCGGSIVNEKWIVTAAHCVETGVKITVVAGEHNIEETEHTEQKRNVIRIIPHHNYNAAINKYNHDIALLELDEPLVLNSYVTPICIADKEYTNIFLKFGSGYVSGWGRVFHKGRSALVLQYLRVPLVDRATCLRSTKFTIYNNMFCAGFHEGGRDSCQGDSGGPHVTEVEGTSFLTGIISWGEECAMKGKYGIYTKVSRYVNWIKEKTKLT
T1 sequence (P00740 47-191 partner limits assumed): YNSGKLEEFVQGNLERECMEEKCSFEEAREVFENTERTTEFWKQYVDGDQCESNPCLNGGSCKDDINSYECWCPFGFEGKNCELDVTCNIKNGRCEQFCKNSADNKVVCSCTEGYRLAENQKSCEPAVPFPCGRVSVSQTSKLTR

This test addresses T1, factor IXa (Homo sapiens, UniProt P00740).
T1 construct: Factor IX is a proenzyme; purchased Calbiochem (Merck KGaA) 233290
Nature of the test: Factor IXa enzyme assay (inhibition of enzymatic activity of FIXa, substrate PEFA 3107). The class given is biochemical. Particulars: 277 nM factor IXa, pH 7.4, 15 min preincubation at room temperature, read at 405 nm. The protocol: The prepared substances from the examples were tested for inhibition of the enzymatic activity of FIXa using the substrate PEFA 3107 (Pentapharm/Loxo; via S. Black GmbH, Baumstrasse 41, 47198 Duisburg, Germany; Pr. No. 095-20) and factor IXa (Calbiochem, Merck KGaA markets Calbiochem in Germany, Life Science & Analytics, 64293 Darmstadt; Pr. No. 233290). In this method, 28 μl of test buffer (50 mM α,α,α-tris(hydroxymethyl)methylamine (TRIS), 100 mM NaCl, 5 mM CaCl2, 0.1% bovine serum albumin, pH 7.4) and 10 μl of factor IXa (277 nM final concentration in the test batch) were added to 2 μl of 10 mM dimethyl sulfoxide solution of the respective test substance, and the mixture was incubated for 15 minutes at room temperature in a 96 half-well microtiter plate. The enzyme reaction was started by addition of 10 μl of substrate (1 mM stock solution in water). The time course of the reaction was monitored at 405 nm in a microtiter plate reader (SpectraMax plus 384; Molecular Devices) for 15 minutes. The IC50 was calculated from the averaged values (duplicate determination) of a dilution series of the test substance with the aid of the software Grafit 4 (Erithacus Software, UK). The inhibition constants (Ki) were calculated according to the Cheng Prusoff equation Ki=IC50/(1+(S/Km), where S=concentration of the test substrate in the test and Km=Michaelis-Menten constant.
`Cc1ccc(NC(=O)[C@H](O)[C@@H](O)C(=O)Nc2ccc3c(N)nccc3c2)cc1` [Example 1, (2R,3R)—N-(1-Aminoisoquinolin-6-yl)-2,3-dihydroxy-N′-p-tolyltartaramide; compound with trifluoroacetic acid]: the IC50 is 220 nM.
`Cc1ccc(NC(=O)[C@H](O)[C@@H](O)C(=O)Nc2ccc(C(=N)N)cc2)cc1` [Example 5, (2R,3R)—N-(4-Carbamimidoylphenyl)-2,3-dihydroxy-N′-p-tolylsuccinamide; compound with trifluoroacetic acid]: the IC50 turned out to be 170 nM. The IC50 values of the last two compounds are within 1.5-fold of each other.
Compound `Nc1nc2ccc(NC(=O)[C@H](O)[C@@H](O)C(=O)Nc3ccc(Oc4ccccc4)cc3)cc2[nH]1` [Example 12, (2R,3R)—N-(2-amino-3H-benzimidazol-5-yl)-2,3-dihydroxy-N′-(4-phenoxyphenyl)-tartaramide] came in with an IC50 of 370 nM.
